Patent US20240262832A1, “SMALL MOLECULE MODULATORS OF GLUCOCEREBROSIDASE ACTIVITY AND USES THEREOF” (Vanqua Bio, Inc., priority 2021, published 2024)

Target: T1, GCase (Homo sapiens, UniProt P04062)
T1 construct: endogenous in cells; host or cells: HeLa cells
T1 sequence (P04062 40-536): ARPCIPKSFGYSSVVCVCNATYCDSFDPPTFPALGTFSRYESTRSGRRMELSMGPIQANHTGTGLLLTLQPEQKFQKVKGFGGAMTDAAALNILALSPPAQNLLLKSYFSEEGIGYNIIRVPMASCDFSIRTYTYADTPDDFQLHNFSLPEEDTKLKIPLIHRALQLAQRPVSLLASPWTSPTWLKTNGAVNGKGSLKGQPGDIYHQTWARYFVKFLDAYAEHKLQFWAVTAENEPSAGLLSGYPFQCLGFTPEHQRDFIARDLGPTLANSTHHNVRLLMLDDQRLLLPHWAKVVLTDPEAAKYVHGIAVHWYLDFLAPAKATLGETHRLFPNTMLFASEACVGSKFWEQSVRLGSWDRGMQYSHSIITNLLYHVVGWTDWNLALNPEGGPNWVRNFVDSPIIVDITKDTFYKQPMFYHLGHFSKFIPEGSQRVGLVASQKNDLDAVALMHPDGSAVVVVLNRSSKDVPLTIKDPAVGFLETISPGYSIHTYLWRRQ
Test: activation of GCase in a live cell PFB assay in HELA cells
Type: cell-based

Row | Structure (SMILES) | EC50
1 | O=C([C@@H]1C[C@H]1c1ccc(F)cc1)N1CCCC(COc2ccccc2)C1 (some centres unmarked) [Compound 219] | 10 to 50 µM
2 | O=C(c1ccn2c1CSCC2)N1CCCC(COc2ccccc2)C1 (centres unmarked) [Compound 220] | 50 to 100 µM
3 | Cn1c(-c2ccc(F)cc2)nc2nc(C(=O)N3C[C@@H]4[C@@H](COc5cccnc5C(F)(F)F)[C@@H]4C3)cnc21 [Compound 223] | > 100 µM
4 | Cn1c(-c2ccc(F)cc2)nc2ncc(C(=O)N3C[C@@H]4[C@@H](COc5cccnc5C(F)(F)F)[C@@H]4C3)nc21 [Compound 224] | 10 to 50 µM
5 | CC(=O)N1CCC(c2cc3nc(C(=O)N4C[C@@H]5[C@@H](COc6cccc(C(F)(F)F)n6)[C@@H]5C4)cnc3n2C)CC1 [Compound 225, 1-(4-(5-Methyl-2-((1R,5S,6r)-6-(((6-(trifluoromethyl)pyridin-2-yl)oxy)methyl)-3-azabicyclo[3.1.0]hexane-3-carbonyl)-5H-pyrrolo[2,3-b]pyrazin-6-yl)piperidin-1-yl)ethan-1-one] | > 100 µM
6 | O=C(c1cncc(-c2nncs2)n1)N1C[C@@H]2[C@@H](COc3cccc(C(F)(F)F)n3)[C@@H]2C1 [Compound 226, (1R,5S,6S)-3-[6-(1,3,4-thiadiazol-2-yl)pyrazine-2-carbonyl]-6-({[6-(trifluoromethyl)pyridin-2-yl]oxy}methyl)-3-azabicyclo[3.1.0]hexane] | 10 to 50 µM
7 | Cn1c(-c2cccc(C(F)(F)F)n2)nc2nc(N3C[C@@H]4[C@@H](COc5cc(F)cc(F)c5)[C@@H]4C3)cnc21 [Compound 227, 5-((1R,5S,6r)-6-((3,5-difluorophenoxy)methyl)-3-azabicyclo[3.1.0]hexan-3-yl)-1-methyl-2-(6-(trifluoromethyl)pyridin-2-yl)-1H-imidazo[4,5-b]pyrazine] | < 10 µM
8 | Fc1nccc(OC[C@@H]2[C@H]3CN(c4cnc5cnn(C6COC6)c5n4)C[C@@H]23)c1F [Compound 228] | 10 to 50 µM
9 | COCCn1ncc2ncc(N3C[C@@H](C)C[C@@H](COc4cccnc4C(F)(F)F)C3)nc21 [Compound 230a, 1-(2-Methoxyethyl)-6-((3S,5R)-3-methyl-5-(((2-(trifluoromethyl)pyridin-3-yl)oxy)methyl)piperidin-1-yl)-1H-pyrazolo[3,4-b]pyrazine] | 10 to 50 µM
10 | COCCn1ncc2ncc(N3C[C@@H](C)C[C@H](COc4cccnc4C(F)(F)F)C3)nc21 [Compound 230b, 1-(2-Methoxyethyl)-6-((3S,5S)-3-methyl-5-(((2-(trifluoromethyl)pyridin-3-yl)oxy)methyl)piperidin-1-yl)-1H-pyrazolo[3,4-b]pyrazine] | < 10 µM
11 | CC(C)c1cc(C(=O)N2CC(COc3cccnc3C(F)(F)F)CCC2C)[nH]n1 (centres unmarked) [Compound 231, (3-isopropyl-1H-pyrazol-5-yl)(2-methyl-5-(((2-(trifluoromethyl)pyridin-3-yl)oxy)methyl)piperidin-1-yl)methanone] | < 10 µM
12 | CC1CCC(COc2cccnc2C(F)(F)F)CN1c1cncc(-c2nncs2)n1 (centres unmarked) [Compound 232, 2-[2-Methyl-5-({[2-(trifluoromethyl)pyridin-3-yl]oxy}methyl)piperidin-1-yl]-6-(1,3,4-thiadiazol-2-yl)pyrazine] | < 10 µM
13 | CC(C)c1cc(C(=O)N2C[C@@H](C)C[C@H](COc3cccnc3C(F)(F)F)C2)[nH]n1 [Compound 234b, (3-Isopropyl-1H-pyrazol-5-yl)((3S,5S)-3-methyl-5-(((2-(trifluoromethyl)pyridin-3-yl)oxy)methyl)piperidin-1-yl)methanone] | 10 to 50 µM
14 | COc1ccccc1OCC1CCCN(C(=O)c2c(-c3ccccc3)n(C)c3nccnc23)C1 (centres unmarked) [Compound 235, (3-((2-Methoxyphenoxy)methyl)piperidin-1-yl)(5-methyl-6-phenyl-5H-pyrrolo[2,3-b]pyrazin-7-yl)methanone] | 10 to 50 µM
15 | Cn1c(-c2ccccc2)c(C(=O)N2CCCC(COc3ccccc3OC(F)(F)F)C2)c2nccnc21 (centres unmarked) [Compound 236, (5-Methyl-6-phenyl-5H-pyrrolo[2,3-b]pyrazin-7-yl)(3-((2-(trifluoromethoxy)phenoxy)methyl)piperidin-1-yl)methanone] | 10 to 50 µM
16 | CN(CC1CCCN(c2cnc3cnn(CC(F)F)c3n2)C1)c1cccc(C(F)(F)F)n1 (centres unmarked) [Compound 239, N-((1-(1-(2,2-Difluoroethyl)-1H-pyrazolo[3,4-b]pyrazin-6-yl)piperidin-3-yl)methyl)-N-methyl-6-(trifluoromethyl)pyridin-2-amine] | 10 to 50 µM

Row | Structure (SMILES) | EC50
17 | O=C(c1cnc(-c2nncs2)cn1)N1C[C@@H]2[C@@H](COc3cccc(C(F)(F)F)n3)[C@@H]2C1 [Compound 247, (1R,5S,6S)-3-[5-(1,3,4-Thiadiazol-2-yl)pyrazine-2-carbonyl]-6-({[6-(trifluoromethyl)pyridin-2-yl]oxy}methyl)-3-azabicyclo[3.1.0]hexane] | > 100 µM
18 | FC(F)(F)COCCn1ncc2ncc(N3CCCC(COc4cccnc4C(F)(F)F)C3)nc21 (centres unmarked) [Compound 248, 1-(2-(2,2,2-Trifluoroethoxy)ethyl)-6-(3-(((2-(trifluoromethyl)pyridin-3-yl)oxy)methyl)piperidin-1-yl)-1H-pyrazolo[3,4-b]pyrazine] | < 10 µM
19 | Cc1ccccc1OCC1CCCN(C(=O)c2c(C3CC3)n(-c3ccccc3)c3nccnc23)C1 (centres unmarked) [Compound 255, (6-cyclopropyl-5-phenyl-5H-pyrrolo[2,3-b]pyrazin-7-yl)(3-((o-tolyloxy)methyl)piperidin-1-yl)methanone] | 10 to 50 µM
20 | Cc1cnc2c(C(=O)N3CCCC(COc4ccccc4C)C3)c(-c3ccccc3)n(C)c2n1 (centres unmarked) [Compound 257, (3,5-Dimethyl-6-phenyl-5H-pyrrolo[2,3-b]pyrazin-7-yl)(3-((o-tolyloxy)methyl)piperidin-1-yl)methanone] | 50 to 100 µM
21 | O=C(N1CCCC(COc2ncccc2C(F)(F)F)C1)N1CCOC(Cc2ccccc2)C1 (centres unmarked) [Compound 258, (2-Benzylmorpholino)(3-(((3-(trifluoromethyl)pyridin-2-yl)oxy)methyl)piperidin-1-yl)methanone] | 50 to 100 µM
22 | FC(F)Cn1ncc2ncc(N3CC4CC4(COc4cccnc4C(F)(F)F)C3)nc21 (centres unmarked) [Compound 260, 3-[1-(2,2-Difluoroethyl)-1H-pyrazolo[3,4-b]pyrazin-6-yl]-1-({[2-(trifluoromethyl)pyridin-3-yl]oxy}methyl)-3-azabicyclo[3.1.0]hexane] | 10 to 50 µM
23 | O=C(c1ccc2cc[nH]c2c1)N1CC2CC2(COc2cccnc2C(F)(F)F)C1 (centres unmarked) [Compound 261, 6-[1-({[2-(Trifluoromethyl)pyridin-3-yl]oxy}methyl)-3-azabicyclo[3.1.0]hexane-3-carbonyl]-1H-indole] | > 100 µM
24 | Cc1cnc2c(n1)c(C(=O)N1CCCC(COc3ccccc3C)C1)c(-c1ccccc1)n2C (centres unmarked) [Compound 263, (2,5-dimethyl-6-phenyl-5H-pyrrolo[2,3-b]pyrazin-7-yl)(3-((o-tolyloxy)methyl)piperidin-1-yl)methanone] | 10 to 50 µM
25 | COc1cnc2c(n1)c(C(=O)N1CCCC(COc3ccccc3C)C1)c(-c1ccccc1)n2C (centres unmarked) [Compound 264, (2-Methoxy-5-methyl-6-phenyl-5H-pyrrolo[2,3-b]pyrazin-7-yl)(3-((o-tolyloxy)methyl)piperidin-1-yl)methanone] | 10 to 50 µM
26 | C[C@@H](Oc1ccccc1C(F)(F)F)[C@H]1CCCN(c2cnc3cnn(CC(F)F)c3n2)C1 [Compound 266a, 1-(2,2-Difluoroethyl)-6-((S)-3-((R)-1-(2-(trifluoromethyl)phenoxy)ethyl)piperidin-1-yl)-1H-pyrazolo[3,4-b]pyrazine] | 10 to 50 µM
27 | C[C@H](Oc1ccccc1C(F)(F)F)[C@@H]1CCCN(c2cnc3cnn(CC(F)F)c3n2)C1 [Compound 266b, 1-(2,2-difluoroethyl)-6-((R)-3-((S)-1-(2-(trifluoromethyl)phenoxy)ethyl)piperidin-1-yl)-1H-pyrazolo[3,4-b]pyrazine] | 10 to 50 µM
28 | C[C@@H]1CC[C@H](COc2cccc(C(F)(F)F)n2)CN1c1cnc2cnn(CC(F)F)c2n1 [Compound 269, 1-(2,2-Difluoroethyl)-6-((2R,5S)-2-methyl-5-(((6-(trifluoromethyl)pyridin-2-yl)oxy)methyl)piperidin-1-yl)-1H-pyrazolo[3,4-b]pyrazine] | > 100 µM
29 | C[C@@H]1CC[C@H](COc2ccc(C(F)(F)F)nc2)CN1c1cnc2cnn(CC(F)F)c2n1 [Compound 272, 1-(2,2-Difluoroethyl)-6-((2R,5S)-2-methyl-5-(((6-(trifluoromethyl)pyridin-3-yl)oxy)methyl)piperidin-1-yl)-1H-pyrazolo[3,4-b]pyrazine] | 10 to 50 µM
30 | C[C@@H]1CC[C@H](COc2cncc(C(F)(F)F)c2)CN1c1cnc2cnn(CC(F)F)c2n1 [Compound 273, 1-(2,2-Difluoroethyl)-6-((2R,5S)-2-methyl-5-(((5-(trifluoromethyl)pyridin-3-yl)oxy)methyl)piperidin-1-yl)-1H-pyrazolo[3,4-b]pyrazine] | 10 to 50 µM
31 | C[C@@H]1CC[C@H](COc2cnccc2C(F)(F)F)CN1c1cnc2cnn(CC(F)F)c2n1 [Compound 274, 1-(2,2-Difluoroethyl)-6-((2R,5S)-2-methyl-5-(((4-(trifluoromethyl)pyridin-3-yl)oxy)methyl)piperidin-1-yl)-1H-pyrazolo[3,4-b]pyrazine] | < 10 µM
32 | C[C@@H]1CC[C@H](COc2ccc(C(F)(F)F)cn2)CN1c1cnc2cnn(CC(F)F)c2n1 [Compound 275, 1-(2,2-Difluoroethyl)-6-((2R,5S)-2-methyl-5-(((5-(trifluoromethyl)pyridin-2-yl)oxy)methyl)piperidin-1-yl)-1H-pyrazolo[3,4-b]pyrazine] | > 100 µM
